From patent publication US6949571B2, “1,2-dihydropyridine compounds, process for preparation of the same and use thereof” (Eisai Co., Ltd., priority 2000, dated 2005)

tested on: AMPA receptor; conditions: Table 2; suppression of AMPA-induced calcium influx into nerve cells
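Note: primary rat embryonic cortical neurons grown on an astrocyte layer in 96-well plates, used after at least 8 to 10 days in culture, Fura2-AM fluorescence ratio at 340/380 nm excitation.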
Protocol: Cerebral cortex was cut out from the brain of rat of gestational 18 days and treated with trypsin and DNase to disperse the cells. The cells were flown by MEM containing 10% of serum, sown in a culture bottle and astrocytes were proliferated. The astrocytes were re-dispersed by trypsin and sown in a 96-well plate. After incubation for one week, it was confirmed that the astrocytes covered all over the bottom and then the nerve cells of cerebral cortex which was dispersed by the above method were sown thereupon. After incubation for 24 hours, the medium was changed, the incubation was carried out for one week and, after that, the medium was changed to that containing 1 μM of MK-801. Nerve cells which were incubated for not shorter than 8 to 10 days were used.
Calcium influx into the cells was measured using Fura2-AM which was a calcium-sensitive fluorescent dye. It was treated in a medium containing Fura2-AM for 1 hour, incorporated into the cells, exchanged to a Tyrode solution containing 1 μM MK-801 and stimulation was carried out using 2 μM AMPA. Change in the amount of calcium flown into the cells were measured as the change in the fluorescent intensity at the exciting wave length of 340/380 nm.

| Compound | IC50 [µM] |
| --- | --- |
| N#Cc1ccccc1-c1cc(-c2ccccn2)cn(-c2cccc(OCc3ccccc3)c2)c1=O [Example 276, 1-[3-(Benzyloxy)phenyl]-3-(2-cyanophenyl)-5-(2-pyridyl)-1,2-dihydropyridin-2-one] | 1.9 |
| CC(=O)c1cccc(-n2cc(-c3ccccn3)cc(-c3ccccc3C#N)c2=O)c1 [Example 277, 1-(3-Acetylphenyl)-3-(2-cyanophenyl)-5-(2-pyridyl)-1,2-dihydropyridin-2-one] | 0.6 |
| N#Cc1ccccc1-c1cc(-c2ccccn2)cn(-c2ccc3ccccc3c2)c1=O [Example 290, 3-(2-Cyanophenyl)-5-(2-pyridyl)-1-(2-naphthyl)-1,2-dihydropyridin-2-one] | 0.2 |
| N#Cc1ccccc1-c1cc(-c2ccccn2)cn(-c2cccc3ccccc23)c1=O [Example 291, 3-(2-Cyanophenyl)-5-(2-pyridyl)-1-(1-naphthyl)-1,2-dihydropyridin-2-one] | 0.14 |
| N#Cc1ccccc1-c1cc(-c2ccccn2)cn(-c2cccc3cccnc23)c1=O [Example 292, 3-(2-Cyanophenyl)-5-(2-pyridyl)-1-(8-quinolinyl)-1,2-dihydropyridin-2-one] | 3.3 |
| O=c1c(-c2cc3ccccc3n2S(=O)(=O)c2ccccc2)cc(-c2ccccn2)cn1-c1ccccc1 [Example 293, 3-[(1-Benzenesulfonyl)indol-2-yl]-1-phenyl-5-(2-pyridyl)-1,2-dihydropyridin-2-one] | 3.3 |
| N#Cc1ncccc1-c1cc(-c2ccccn2)cn(-c2cccnc2)c1=O [Example 294, 3-(2-Cyanopyridin-3-yl)-5-(2-pyridyl)-1-(3-pyridyl)-1,2-dihydropyridin-2-one] | 0.6 |
| Cc1ccc(C)n1-c1cccc(-c2cc(-c3ccccc3C#N)c(=O)n(-c3ccccc3)c2)n1 [Example 297, 3-(2-Cyanophenyl)-5-[2-(2,6-dimethylpvrrol-1-yl)pyridin-6-yl]-1-phenyl-1,2-dihydropyridin-2-one] | 4.2 |
| N#Cc1ccccc1-c1cc(-c2ccc([N+](=O)[O-])cn2)cn(-c2ccccc2)c1=O [Example 299, 3-(2-Cyanophenyl)-5-(5-nitropyridin-2-yl)-1-phenyl-1,2-dihydropyridin-2-one] | 4.4 |
| N#Cc1ccccc1-c1cc(-c2cccc(Br)n2)cn(-c2ccccc2)c1=O [Example 300, 5-(2-Bromopyridin-6-yl)-3-(2-cyanophenyl)-1-phenyl-1,2-dihydropyridin-2-one] | 0.3 |

Other lines, results leading:

| IC50 [µM] | Compound |
| --- | --- |
| 4.2 | O=C1C=C(c2cc(-c3ccccn3)cn(-c3ccccc3)c2=O)CCC1 [Example 268, 3-(3-Oxo-1-cyclohexen-1-yl)-1-phenyl-5-(2-pyridyl)-1,2-dihydropyridin-2-one] |
| 1.9 | O=c1c(C2=COCCO2)cc(-c2ccccn2)cn1-c1ccccc1 [Example 269, 3-(5,6-Dihydro-1,4-dioxin-2-yl)-1-phenyl-5-(2-pyridyl)-1,2-dihydropyridin-2-one] |
| 3.3 | CC(=O)c1ccccc1-c1cc(-c2ccccn2)cn(-c2ccccc2)c1=O [Example 272, 3-(2-Acetylphenyl)-5-(2-pyridyl)-1-phenyl-1,2-dihydropyridin-2-one] |
| 6.1 | O=c1c(-c2ccc([N+](=O)[O-])cc2)cc(-c2ccccn2)cn1-c1ccccc1 [Example 275, 3-(4-Nitrophenyl)-1-phenyl-5-(2-pyridyl)-1,2-dihydropyridin-2-one] |
| 2.8 | CC(C)(C)NS(=O)(=O)c1ccc(-c2cc(-c3ccccn3)cn(-c3ccccc3)c2=O)cc1 [Example 278, 3-[4-(tert-Butylaminosulfonyl)phenyl]-1-phenyl-5-(2-pyridyl)-1,2-dihydropyridin-2-one] |
| 3.7 | O=c1c(-c2cccc3ccccc23)cc(-c2ccccn2)cn1-c1cccnc1 [Example 279, 3-(1-Naphthyl)-5-(2-pyridyl)-1-(3-pyridyl)-1,2-dihydropyridin-2-one] |
| 1.3 | O=c1c(-c2cccc3ccccc23)cc(-c2ccccn2)cn1-c1ccccc1 [Example 280, 3-(1-Naphthyl)-5-(2-pyridyl)-1-phenyl-1,2-dihydropyridin-2-one] |
| 9 | O=c1c(-c2cccc3cccnc23)cc(-c2ccccn2)cn1-c1ccccc1 [Example 282, 3-(8-Quinolinyl)-5-(2-pyridyl)-1-phenyl-1,2-dihydropyridin-2-one] |
| 2.8 | O=c1c(-c2ccc3ccccc3c2)cc(-c2ccccn2)cn1-c1ccccc1 [Example 284, 3-(2-Naphthyl)-5-(2-pyridyl)-1-phenyl-1,2-dihydropyridin-2-one] |
| 7.2 | O=c1c(-c2ccc(N3CCCC3)nc2)cc(-c2ccccn2)cn1-c1ccccc1 [Example 285, 3-(2-Pyrrolidinopyridin-5-yl)-5-(2-pyridyl)-1-phenyl-1,2-dihydropyridin-2-one] |
| 0.3 | O=Cc1sccc1-c1cc(-c2ccccn2)cn(-c2ccccc2)c1=O [Example 286, 3-(2-Formylthiophen-3-yl)-5-(2-pyridyl)-1-phenyl-1,2-dihydropyridin-2-one] |
| 5.6 | O=c1c(-c2ccc(Cl)nc2)cc(-c2ccccn2)cn1-c1ccccc1 [Example 287, 3-(2-Chloropyridin-5-yl)-5-(2-pyridyl)-1-phenyl-1,2-dihydropyridin-2-one] |
| 1.2 | O=c1c(-c2ccc(F)nc2)cc(-c2ccccn2)cn1-c1ccccc1 [Example 288, 3-(2-Fluoropyridin-5-yl)-5-(2-pyridyl)-1-phenyl-1,2-dihydropyridin-2-one] |

same assay, conditions: Table 3; primary culture of rat embryo cerebral cortex nerve cells, 2 μM AMPA, 1 μM MK-801

| Compound | IC50 [µM] |
| --- | --- |
| N#Cc1ccccc1-c1cc(-c2cccc(N3CCOCC3)n2)cn(-c2ccccc2)c1=O [Example 302, 3-(2-Cyanophenyl)-5-(2-morpholinopyridin-6-yl)-1-phenyl-1,2-dihydropyridin-2-one] | 0.3 |
| COC(=O)c1cccc(-c2cc(-c3ccccc3C#N)c(=O)n(-c3ccccc3)c2)n1 [Example 303, 3-(2-Cyanophenyl)-5-(2-methoxycarbonylpyridin-6-yl)-1-phenyl-1,2-dihydropyridin-2-one] | 0.9 |
| N#Cc1ccccc1-c1cc(NC(=O)Nc2ccccc2)cn(-c2ccccc2)c1=O [Example 307, 3-(2-Cyanophenyl)-1-phenyl-5-[N-(N′-phenylureylenyl)]-1,2-dihydropyridin-2-one] | 2 |
| CCCCNC(=O)Nc1ccc(-c2cc(-c3ccccn3)cn(-c3ccccc3)c2=O)cc1 [Example 308, 3-{4[N-(N′-butylureylenyl)phenyl]}-1-phenyl-5-(2-pyridyl)-1,2-dihydropyridin-2-one] | 1.6 |
| N#Cc1ccccc1-c1cc(NC(=O)c2ccccn2)cn(-c2ccccc2)c1=O [Example 309, 3-(2-Cyanophenyl)-1-phenyl-5-(2-pyridincarbonyl)amino-1,2-dihydropyridin-2-one] | 4.1 |
| N#Cc1ccccc1-c1cc(NCc2ccccc2)cn(-c2ccccc2)c1=O [Example 313, 5-Benzylamino-3-(2-cyanophenyl)-1-phenyl-1,2-dihydropyridin-2-one] | 5.9 |
| O=c1c(N(Cc2ccccc2)Cc2ccccc2)cc(-c2ccccn2)cn1-c1ccccc1 [Example 314, 3-Dibenzylamino-1-phenyl-5-(2-pyridyl)-1,2-dihydropyridin-2-one] | 4.6 |
| N#Cc1ccccc1-c1cc(-c2ccccn2)cn(-c2cccc(O)c2)c1=O [Example 315, 3-(2-Cyanophenyl)-1-(3-hydroxyphenyl)-5-(2-pyridyl)-1,2-dihydropyridin-2-one] | 0.08 |
